Key:
[1] = Octanol-water partition coefficient, log KOW of the compound; format: physicochemical; conditions: read-out: log K
[2] = Binding affinity to human serum albumin
Rana temporaria = test: Anesthetic potency in Rana temporaria tadpoles assessed as loss of righting reflex for 60 mins; conditions: 1 h
[3] = molecular target: T1, Gamma-aminobutyric acid receptor subunit alpha-1 (Homo sapiens, UniProt P14867+P18507+P47870); test: Activity at human GABAA alpha-1-beta-2-gamma-2s receptor expressed in HEK293 cells assessed as effect on GABA-induced current at 3 uM by whole cell patch-clamp technique; format: cell-based
T1 sequence (P14867 whole entry): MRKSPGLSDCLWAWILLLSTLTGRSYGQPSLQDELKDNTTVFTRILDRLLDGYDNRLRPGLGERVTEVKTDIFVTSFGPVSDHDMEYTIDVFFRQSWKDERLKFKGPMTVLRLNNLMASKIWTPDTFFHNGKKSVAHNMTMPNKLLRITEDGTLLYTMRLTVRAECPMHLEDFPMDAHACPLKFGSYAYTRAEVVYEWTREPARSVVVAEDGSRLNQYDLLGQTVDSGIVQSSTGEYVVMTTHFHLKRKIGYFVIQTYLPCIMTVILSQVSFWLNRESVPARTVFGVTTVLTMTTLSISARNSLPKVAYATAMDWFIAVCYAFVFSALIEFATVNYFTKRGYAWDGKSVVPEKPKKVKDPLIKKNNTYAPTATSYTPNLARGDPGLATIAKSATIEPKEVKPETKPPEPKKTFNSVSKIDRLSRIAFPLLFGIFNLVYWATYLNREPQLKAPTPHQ

Rattus norvegicus = test: Anesthetic potency in Sprague-Dawley rat assessed as loss of righting reflex; format: functional
[4] = Chemical stability in aqueous solution assessed as hydrolysis after 4 hrs; format: physicochemical; conditions: read-out: Activity

CC(c1ccccc1)n1cncc1C=O (stereo unspecified)
logP [1]: 1.77

CCOC(=O)c1cncn1[C@H](C)c1ccccc1 [ETOMIDATE]
logP [1]: 2.89 | Kd [2]: 176 µM

CC(c1ccccc1)n1cncc1CO (stereo unspecified)
logP [1]: 1.28

CCOC(=O)c1cncn1[C@@H](C)c1ccccc1 [S-ETOMIDATE]
EC50 (Rana temporaria): 36 µM

C[C@H](c1ccccc1)n1cncc1C(=O)N=[N+]=[N-]
EC50 [3]: 11 µM | ED50 (Rattus norvegicus): 1.7 mg/kg | Kd [2]: 121 µM

CC(c1ccccc1)n1cncc1C(=O)N=[N+]=[N-] (stereo unspecified)
logP [1]: 2.71 | degraded at 4 h [4]: 10%

COC(=O)c1cncn1C(C)c1ccccc1 (stereo unspecified) [METOMIDATE]
logP [1]: 2.28

Source: ChEMBL document CHEMBL1156442 (J Biol Chem, 2007)
